This is an account of results in patent US8524748B2, “Heteroalkyl biphenyl antagonists of prostaglandin D2 receptors” (Panmira Pharmaceuticals, LLC, priority 2008, dated 2013).

The target of the assay is T1, human DP2 receptor (Homo sapiens, UniProt Q9Y5Y4).
T1 construct: expressed in transfected cells; membranes prepared from them
T1 sequence (Q9Y5Y4 1-395): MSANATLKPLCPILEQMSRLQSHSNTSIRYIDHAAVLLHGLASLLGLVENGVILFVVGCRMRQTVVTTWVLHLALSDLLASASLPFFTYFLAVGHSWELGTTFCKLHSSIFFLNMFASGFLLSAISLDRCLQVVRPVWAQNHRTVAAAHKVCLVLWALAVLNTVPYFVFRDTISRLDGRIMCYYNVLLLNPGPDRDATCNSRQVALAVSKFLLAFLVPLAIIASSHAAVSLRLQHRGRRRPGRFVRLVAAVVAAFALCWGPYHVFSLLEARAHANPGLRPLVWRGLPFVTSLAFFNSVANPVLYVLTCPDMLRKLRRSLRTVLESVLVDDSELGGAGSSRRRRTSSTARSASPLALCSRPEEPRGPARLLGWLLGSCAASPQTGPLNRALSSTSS
Nature of the assay: DP2/CRTH2 radioligand binding assay using [3H]PGD2. As to conditions: membranes of HEK293 cells stably expressing recombinant human DP2; 1 nM [3H]PGD2; read-out: hDP2 IC50. How it is done:
The ability of a compound to bind to the human DP2 receptor is assessed via a radioligand binding assay using [^3H]PGD2. HEK293 cells stably expressing recombinant human DP2 are resuspended in 10 mM Hepes, 7.4 containing 1 mM DTT, lysed and centrifuged at 75,000×g to pellet the membranes. The membranes are resuspended in 10 mM Hepes, 7.4 containing 1 mM DTT and 10% glycerol to approximately 5 mg protein/ml. Membranes (2-10 μg protein/well) are incubated in 96-well plates with 1 nM [^3H]PGD2 and test compound in Assay Buffer (50 mM Hepes, 10 mM MnCl2, 1 mM EDTA, plus or minus 0.2% human serum albumin, pH 7.4) for 60 minutes at room temperature. The reactions are terminated by rapid filtration through Whatman GF/C glass fibre filter plates. The filter plates were pre-soaked in 0.33% polythylenimine for 30 minutes at room temperature then washed in Wash Buffer (50 mM Hepes, 0.5 M NaCl pH 7.4) prior to harvesting. After harvesting, the filter plates are washed 3 times with 1 ml cold Wash Buffer then dried. Scintillant is then added to the plates and the radioactivity retained on the filters is determined on a Packard TopCount (Perkin Elmer). Specific binding is determined as total radioactive binding minus non-specific binding in the presence of 10 μM PGD2. IC50s were determined using GraphPad prism analysis of drug titration curves.

For the molecule `COc1ccc(CC(=O)O)cc1-c1ccc(C(F)(F)F)cc1CSc1ccccc1` [Compound 1-1, (6-Methoxy-2′-phenylsulfanylmethyl-4′-trifluoromethyl-biphenyl-3-yl)-acetic acid], the IC50 is < 1 µM. The result for `COc1ccc(CC(=O)O)cc1-c1ccc(C(F)(F)F)cc1CSCc1ccccc1` [Compound 1-2, (2′-Benzylsulfanylmethyl-6-methoxy-4′-trifluoromethyl-biphenyl-3-yl)-acetic acid] reads < 1 µM; that for `COc1ccc(CC(=O)O)cc1-c1ccc(C(F)(F)F)cc1CSC(C)(C)C` [Compound 1-3, (2′-tert-Butylsulfanylmethyl-6-methoxy-4′-trifluoromethyl-biphenyl-3-yl)-acetic acid], 1 to 10 µM.

As to `COc1ccc(CC(=O)O)cc1-c1ccc(C(F)(F)F)cc1CSc1nnc(C)s1` [Compound 1-4, [6-Methoxy-2′-(5-methyl-[1,3,4]thiadiazol-2-ylsulfanylmethyl)-4′-trifluoromethyl-biphenyl-3-yl]-acetic acid], the IC50 was < 1 µM. Consider `COc1ccc(CC(=O)O)cc1-c1ccc(C(F)(F)F)cc1CSCC(F)(F)F` [Compound 1-5, [6-Methoxy-2′-(2,2,2-trifluoro-ethylsulfanylmethyl)-4′-trifluoromethyl-biphenyl-3-yl]-acetic acid], for which the half-maximal inhibitory concentration (IC50) was in the range of 1 to 10 µM.

With `COc1ccc(CC(=O)O)cc1-c1ccc(C(F)(F)F)cc1COc1ccccc1` [Compound 1-6, (6-Methoxy-2′-phenoxymethyl-4′-trifluoromethyl-biphenyl-3-yl)-acetic acid], the 50% inhibitory concentration (IC50) was 1 to 10 µM. Take `COc1ccc(CC(=O)O)cc1-c1ccc(C(F)(F)F)cc1C[S+]([O-])c1ccccc1` (centres unmarked) [Compound 1-7, (2′-Benzenesulfinylmethyl-6-methoxy-4′-trifluoromethyl-biphenyl-3-yl)-acetic acid]: the half-inhibitory concentration (IC50) is > 10 µM. The result for `COc1ccc(CC(=O)O)cc1-c1ccc(C(F)(F)F)cc1C[S+]([O-])Cc1ccccc1` (centres unmarked) [Compound 1-8, (6-Methoxy-2′-phenylmethanesulfinylmethyl-4′-trifluoromethyl-biphenyl-3-yl)-acetic acid] reads > 10 µM. Regarding `COc1ccc(CC(=O)O)cc1-c1ccc(C(F)(F)F)cc1C[S+]([O-])C(C)(C)C` (centres unmarked) [Compound 1-9, [6-Methoxy-2′-(2-methyl-propane-2-sulfinylmethyl)-4′-trifluoromethyl-biphenyl-3-yl]-acetic acid], the IC50 was > 10 µM. Consider `COc1ccc(CC(=O)O)cc1-c1ccc(C(F)(F)F)cc1C[S+]([O-])c1nnc(C)s1` (centres unmarked) [Compound 1-10, [6-Methoxy-2′-(5-methyl-[1,3,4]thiadiazole-2-sulfinylmethyl)-4′-trifluoromethyl-biphenyl-3-yl]-acetic acid], for which the half-inhibitory concentration (IC50) was > 10 µM. On to `COc1ccc(CC(=O)O)cc1-c1ccc(C(F)(F)F)cc1CS(=O)(=O)c1ccccc1` [Compound 1-11, (2′-Benzenesulfonylmethyl-6-methoxy-4′-trifluoromethyl-biphenyl-3-yl)-acetic acid], for which the IC50 was in the range of 1 to 10 µM. For `COc1ccc(CC(=O)O)cc1-c1ccc(C(F)(F)F)cc1CS(=O)(=O)Cc1ccccc1` [Compound 1-12, (6-Methoxy-2′-phenylmethanesulfonylmethyl-4′-trifluoromethyl-biphenyl-3-yl)-acetic acid], the half-maximal inhibitory concentration (IC50) was 1 to 10 µM.

Take `COc1ccc(CC(=O)O)cc1-c1ccc(C(F)(F)F)cc1CS(=O)(=O)C(C)(C)C` [Compound 1-13, [6-Methoxy-2′-(2-methyl-propane-2-sulfonylmethyl)-4′-trifluoromethyl-biphenyl-3-yl]-acetic acid]: the IC50 is > 10 µM. On to `COc1ccc(CC(=O)O)cc1-c1ccc(C(F)(F)F)cc1CS(=O)(=O)c1nnc(C)s1` [Compound 1-14, [6-Methoxy-2′-(5-methyl-[1,3,4]thiadiazole-2-sulfonylmethyl)-4′-trifluoromethyl-biphenyl-3-yl]-acetic acid], for which the concentration for half-maximal inhibition (IC50) lay within 1 to 10 µM. Then `CCN(Cc1ccccc1)C(=O)OCc1cc(C(F)(F)F)ccc1-c1cc(CC(=O)O)ccc1OC` [Compound 1-15, {2′-[(Benzyl-ethyl-carbamoyloxy)-methyl]-6-methoxy-4′-trifluoromethyl-biphenyl-3-yl}-acetic acid], with 1 to 10 µM; and `CCN(Cc1ccccc1)C(=O)OCc1cc(C(F)(F)F)ccc1-c1cc(CC(=O)O)ccc1F` [Compound 1-16, {2′-[(Benzyl-ethyl-carbamoyloxy)-methyl]-6-fluoro-4′-trifluoromethyl-biphenyl-3-yl}-acetic acid], with < 1 µM; and `O=C(O)CCn1c2c(c3ccccc31)C[C@H](NS(=O)(=O)c1ccc(F)cc1)CC2` [Ramatroban, reference compound], with < 1 µM.

In general, IC50 refers to the concentration needed to halve the response being measured.
